Data on five compounds can be found in US20100137303A1, “NEW COMPOUND 255” (AstraZeneca AB, priority 2008, published 2010).

Converted amounts (≈) assume the structure as drawn. A value given as a limit tells only on which side of the number the result lay.

Experiment [1] concerns M. tuberculosis. Description: Mycobacteria susceptibility testing, Microplate Alamar Blue Assay, Mtu MIC. It counts as cell-based, Mycobacterium tuberculosis (Mtu). The note with it: Mycobacterium tuberculosis. For orientation: The colour change of resazurin is a common sign of viable cells or microbes.
Experiment [2] deals with Eco-tolC. Description: Bacterial susceptibility testing in liquid media, Eco-tolC MIC. The following applies: Escherichia coli, read-out: Eco-tolC MIC.
The target in experiment [3] is T1, Msm. GyrB (Mycolicibacterium smegmatis, UniProt A0QNE0).
T1 construct: 15 nM Msm; GyrB, 650 μM ATP, and compound in dimethyl sulfoxide
The experiment is described as follows: Msmegmatis GyrB enzyme assay (ATPase, malachite green phosphate detection). The note with it: read-out: Msm_GyrB IC50. It counts as biochemical. A digest of the protocol: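 ATPase activity of 15 nM Msm. GyrB was measured with 650 μM ATP in 50 mM HEPES pH 7.7 containing 250 mM potassium glutamate, 200 mM KCl, 2 mM MgCl2, 2% glycerol, 1 mM DTT and 0.005% Brij-35, with compound added in DMSO. Released phosphate was detected with an ammonium molybdate/malachite green reagent plus stabilizer.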

For experiment [4], the system named is Spn548. Description: Bacterial susceptibility testing in liquid media, Spn548 MIC. The following applies: Streptococcus pneumoniae, 24 h, read-out: Spn548 Mean MIC.
Text: Compounds may be tested for antimicrobial activity by susceptibility testing in liquid media. Compounds may be dissolved in dimethylsulfoxide and tested in 10 doubling dilutions in the susceptibility assays. The organisms used in the assay may be grown overnight on suitable agar media and then suspended in a liquid medium appropriate for the growth of the organism. The suspension can be a 0.5 McFarland and a further 1 in 10 dilution can be made into the same liquid medium to prepare the final organism suspension in 100 μL. Plates can be incubated under appropriate conditions at 37° C. for 24 hrs prior to reading.

T1 sequence (A0QNE0 whole entry): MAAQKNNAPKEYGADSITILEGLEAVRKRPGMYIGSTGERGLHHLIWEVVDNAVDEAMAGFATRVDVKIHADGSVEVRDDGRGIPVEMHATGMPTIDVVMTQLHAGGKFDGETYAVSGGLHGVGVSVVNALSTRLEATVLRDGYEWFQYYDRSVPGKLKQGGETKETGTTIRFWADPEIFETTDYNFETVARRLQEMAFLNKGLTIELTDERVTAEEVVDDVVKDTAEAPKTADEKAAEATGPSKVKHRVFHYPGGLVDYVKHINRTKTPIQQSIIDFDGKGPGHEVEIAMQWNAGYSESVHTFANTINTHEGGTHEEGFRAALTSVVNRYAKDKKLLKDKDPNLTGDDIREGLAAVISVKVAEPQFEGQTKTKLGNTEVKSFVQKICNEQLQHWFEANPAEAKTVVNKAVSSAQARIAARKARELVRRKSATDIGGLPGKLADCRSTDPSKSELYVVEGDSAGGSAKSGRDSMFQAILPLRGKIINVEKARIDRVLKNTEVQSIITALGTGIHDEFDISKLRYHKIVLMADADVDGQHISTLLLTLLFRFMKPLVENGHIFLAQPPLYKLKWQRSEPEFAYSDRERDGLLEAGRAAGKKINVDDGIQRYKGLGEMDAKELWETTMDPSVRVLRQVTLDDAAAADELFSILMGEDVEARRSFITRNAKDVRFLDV

In the case of `CCNC(=O)Nc1nc2cc(-c3cncnc3)c(N[C@@H](C)C(=O)OCC)nc2s1` [Example 65, Ethyl N-{2-[(ethylcarbamoyl)amino]-6-pyrimidin-5-yl[1,3]thiazolo[5,4-b]pyridin-5-yl}-L-alaninate], the figures for the MIC in experiment [1], in experiment [2] and in experiment [4] were 0.125 µg/mL (≈ 0.301 µM), 4 µg/mL (≈ 9.63 µM) and 0.125 µg/mL (≈ 0.301 µM), respectively. In experiment [3], the IC50 is less than 0.00254 µM.

With `CCNC(=O)Nc1nc2cc(-c3cnc(C#N)nc3)c(OCC3CCOC3)nc2s1` (centres unmarked) [Example 66, 1-[6-(2-cyanopyrimidin-5-yl)-5-(tetrahydrofuran-3-ylmethoxy)[1,3]thiazolo[5,4-b]pyridin-2-yl]-3-ethylurea], the values for the MIC in experiment [1], in experiment [2] and in experiment [4] were less than 0.043 µg/mL, 0.5 µg/mL (≈ 1.18 µM) and 0.125 µg/mL (≈ 0.294 µM), respectively. In addition, in experiment [3], the IC50 was less than 0.00254 µM.

Take `CCNC(=O)Nc1nc2cc(-c3cncnc3)c(N[C@@H](C)C(=O)NC)nc2s1` [Example 67, (2S)-2-[[2-(ethylcarbamoylamino)-6-pyrimidin-5-yl-thiazolo[4,5-e]pyridin-5-yl]amino]-N-methyl-propanamide]: the MIC in experiment [1] is 1.41 µg/mL (≈ 3.53 µM); in experiment [2], more than 64 µg/mL; in experiment [4] it was 2 µg/mL (≈ 4.99 µM). For the same compound, the 50% inhibitory concentration (IC50) in experiment [3] came to 0.0159 µM.

As for `CCNC(=O)Nc1nc2cc(-c3ccc(C(F)(F)F)nc3)c(OCC3CCOC3)nc2s1` (centres unmarked) [Example 70, 1-ethyl-3-{5-(tetrahydrofuran-3-ylmethoxy)-6-[6-(trifluoromethyl)pyridin-3-yl][1,3]thiazolo[5,4-b]pyridin-2-yl}urea], the MIC in experiment [1] was 4.76 µg/mL (≈ 10.2 µM); in experiment [2], 0.25 µg/mL (≈ 0.535 µM); in experiment [4], 0.0625 µg/mL (≈ 0.134 µM). The IC50 in experiment [3] was determined as 0.00692 µM.

Take `CCNC(=O)Nc1nc2cc(-c3ccc(F)nc3)c(OC3C=CCCC3)nc2s1` (centres unmarked) [Example 72, 1-[5-(cyclohex-2-en-1-yloxy)-6-(6-fluoropyridin-3-yl)[1,3]thiazolo[5,4-b]pyridin-2-yl]-3-ethylurea]: the values for the minimum inhibitory concentration (MIC) in experiment [1], in experiment [2] and in experiment [4] were 2 µg/mL (≈ 4.84 µM), 0.25 µg/mL (≈ 0.605 µM) and 0.0625 µg/mL (≈ 0.151 µM), respectively. Further, in experiment [3], the IC50 came out at 0.0291 µM.

One may read the MIC as the smallest concentration in the dilution series that meets the test's criterion for growth inhibition. The IC50 is the concentration at which inhibition is half-maximal.
